From ChEMBL document CHEMBL5233248, “Resveratrol - A comprehensive review of recent advances in anticancer drug design and development” (Eur J Med Chem, 2020)
Values joined by “and” are separate entries in the source; they are usually repeats but may differ in a detail not shown here. Equal values may be shown once. One block for each molecule: values may come before it.

Tests used:
PANC-1 = experiment: Anticancer activity against human PANC-1 cells assessed as cell growth inhibition incubated for 48 hrs by SRB assay; format: functional; settings: Homo sapiens, PANC-1, 48 h
HT-29 [1] = experiment: Anticancer activity against human HT-29 cells assessed as cell growth inhibition incubated for 24 hrs by MTT assay; format: functional, cell-based
HepG2 [2] = experiment: Anticancer activity against human HepG2 cells assessed as cell growth inhibition incubated for 24 hrs by MTT assay; format: functional, cell-based; settings: HepG2, 24 h
SK-BR-3 = experiment: Anticancer activity against human SK-BR-3 cells assessed as cell growth inhibition incubated for 24 hrs by MTT assay; format: functional, cell-based; settings: SK-BR-3, 24 h
Aromatase = biological target: T1, Aromatase (Homo sapiens, UniProt P11511)
T1 sequence (P11511 whole entry): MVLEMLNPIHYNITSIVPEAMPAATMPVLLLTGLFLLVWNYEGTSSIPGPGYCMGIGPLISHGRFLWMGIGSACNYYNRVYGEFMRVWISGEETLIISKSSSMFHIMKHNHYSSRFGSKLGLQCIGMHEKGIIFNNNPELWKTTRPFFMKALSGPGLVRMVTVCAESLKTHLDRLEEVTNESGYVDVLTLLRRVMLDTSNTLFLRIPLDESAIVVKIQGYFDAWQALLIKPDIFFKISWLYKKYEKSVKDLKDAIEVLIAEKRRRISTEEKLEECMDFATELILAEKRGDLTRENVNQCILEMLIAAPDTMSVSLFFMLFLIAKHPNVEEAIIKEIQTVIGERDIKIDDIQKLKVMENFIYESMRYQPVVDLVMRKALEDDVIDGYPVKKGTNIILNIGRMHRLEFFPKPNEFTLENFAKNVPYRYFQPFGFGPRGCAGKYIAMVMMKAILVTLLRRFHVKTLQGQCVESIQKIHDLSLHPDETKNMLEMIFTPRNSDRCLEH
Description: Inhibition of human Aromatase

CYP1A = CYP1A (Homo sapiens, UniProt P04798+P05177); experiment: Inhibtion of CYP1A (unknown origin); format: ADME, protein assay
HCT-116 = experiment: Anticancer activity against human HCT-116 cells assessed as cell growth inhibition; format: functional, cell-based
Ishikawa = experiment: cells; settings: Homo sapiens
Description: Anti-tumor activity against human ishikawa cells assessed as anti-estrogenic potential

HeLa = experiment: Anticancer activity against human HeLa cells assessed as cell growth inhibition measured after 72 hrs by MTT assay; format: functional, cell-based
A549 = experiment: Anticancer activity against human A549 cells assessed as cell growth inhibition measured after 72 hrs by MTT assay; format: functional, cell-based
[3] = Anticancer activity against Lung adenocarcinoma cell line assessed as cell growth inhibition measured after 72 hrs by MTT assay; format: functional, cell-based; settings: Lung adenocarcinoma cell line, 72 h
MCF7 [4] = experiment: Anticancer activity against human MCF7 cells assessed as cell growth inhibition incubated for 48 hrs by MTS assay; format: functional, cell-based; settings: MCF7, 48 h
[5] = Cytotoxicity activity against human CCD-1059Sk cells assessed as cell growth inhibition incubated for 48 hrs by MTS assay; format: toxicity, cell-based
in vitro = settings: human, CCD-1059Sk cells and MCF7 cells
Description: Selectivity index, ratio of IC50 for cytotoxicity against CCD-1059Sk cells to IC50 for antiproliferative activity against MCF7 cells

HT-29 [6] = experiment: Anticancer activity against human HT-29 cells assessed as cell growth inhibition incubated for 3 days by MTT assay; format: functional, cell-based; settings: HT-29, 72 h
MCF7 [7] = experiment: Anticancer activity against human MCF7 cells assessed as cell growth inhibition incubated for 3 days by MTT assay; format: functional, cell-based; settings: MCF7, 72 h
HEK293 = experiment: Anticancer activity against human HEK293 cells assessed as cell growth inhibition incubated for 3 days by MTT assay; format: functional, cell-based; settings: HEK293, 72 h
HepG2 [8] = experiment: Anticancer activity against human HepG2 cells assessed as cell growth inhibition incubated for 3 days by MTT assay; format: functional, cell-based; settings: HepG2, 72 h
[9] = Anticancer activity against human AZ-AHR cells assessed as cell growth inhibition incubate for 24 hrs by MTT assay; format: functional, cell-based
B16-F10 [10] = experiment: Anti cancer activity against mouse B16-F10 cells assessed as cell growth inhibition incubated for 40 hrs by Almar Blue stained fluorescence-based assay; format: functional; settings: B16-F10, 40 h
B16-F10 [11] = experiment: Anti cancer activity against mouse B16-F10 cells assessed as cell growth inhibition incubated for 40 hrs by Almar Blue stained fluorescence-based assay relative to control; format: functional
MDA-MB-231 = experiment: Anticancer activity against human MDA-MB-231 cells assessed as reduction in cell viability measured after 48 hrs at 150 uM by MTT assay relative to control; format: functional
[12] = Homo sapiens, HeLa, 72 h, read-out: IC50

GI50 (PANC-1): 0.064 µM
Compound: COc1cc(/C=C/c2ccc(NC(=O)CSc3nnc(-c4ccc(F)cc4)o3)cc2)cc(OC)c1

GI50 (PANC-1): 0.064 µM
Compound: COc1cc(/C=C/c2ccc(NC(=O)CSc3nnc(-c4ccc(C)cc4)o3)cc2)cc(OC)c1

Compound: COc1ccc(/C=C/c2cc(OC)cc(OC)c2)cc1 [TRISMETHOXYRESVERATROL]
IC50 (HT-29 [1]; Homo sapiens, HT-29, 24 h): 14 µM
IC50 (HepG2 [2]): > 100 µM
IC50 (SK-BR-3): 112 µM
IC50 (Aromatase): 13.6 µM
IC50 (CYP1A): 0.003 µM
IC50 (HCT-116): 1.1 µM
IC50 (Ishikawa): 12.6 µM

Compound: CC(=O)Oc1ccc(/C=C/c2cc(OC(C)=O)cc(OC(C)=O)c2)cc1 [TRIACETYLRESVERATROL]
IC50 (HeLa; [12]): 3.4 µM
IC50 (HeLa; time 72 hrs): 20.14 µM
IC50 (A549; a549): 3.4 µM and 9.43 µM
IC50 [3]: 3.4 µM

GI50 (PANC-1): 0.064 µM
Compound: COc1cc(/C=C/c2ccc(OC(=O)CSc3nnc(-c4ccccc4F)o3)cc2)cc(OC)c1

GI50 (PANC-1): 0.064 µM
Compound: COc1cc(/C=C/c2ccc(NC(=O)CSc3nnc(-c4ccccc4F)o3)cc2)cc(OC)c1

GI50 (PANC-1): 0.064 µM
Compound: COc1cc(/C=C/c2ccc(OC(=O)CSc3nnc(-c4ccncc4)o3)cc2)cc(OC)c1

IC50 (MCF7 [4]): 19.1 µM
Compound: COc1ccc(/C=N/NC(=O)/C=C/c2ccc(O)c(OC)c2)cc1
IC50 at 48 h [5]: 158 µM
selectivity ratio (in vitro): 3.9

IC50 (HT-29 [6]): 115 µM
IC50 (MCF7 [7]): 17 µM
Compound: O=S(=O)(O)Oc1cc(O)cc(/C=C/c2ccc(O)cc2)c1
IC50 (HEK293): > 100 µM

GI50 (PANC-1): 0.064 µM
Compound: COc1cc(/C=C/c2ccc(OC(=O)CSc3nnc(-c4ccc(C)cc4)o3)cc2)cc(OC)c1

IC50 (HeLa; [12]): 4.9 µM
IC50 (A549; Homo sapiens, A549, 72 h): 4.9 µM
Compound: CC(C)CC(=O)Oc1ccc(/C=C/c2cc(OC(=O)CC(C)C)cc(OC(=O)CC(C)C)c2)cc1
IC50 [3]: 4.9 µM

IC50 (HT-29 [1]; ht-29): 44.3 µM and 18.9 µM
IC50 (HepG2 [2]): 18.9 µM
IC50 (SK-BR-3): 11.3 µM
Compound: COC(=O)c1cc(/C=C/c2cc(O)cc(O)c2)ccc1O

GI50 (PANC-1): 0.064 µM
Compound: COc1cc(/C=C/c2ccc(OC(=O)CSc3nnc(-c4ccc(F)cc4)o3)cc2)cc(OC)c1

Compound: Oc1ccc(/C=C/c2cc(O)cc(OCc3ccccc3)c2)cc1
IC50 (Aromatase): 2.7 µM
IC50 (CYP1A): 0.14 µM
IC50 (HeLa; [12]): 1.41 µM
IC50 (A549; Homo sapiens, A549, 72 h): 11.8 µM
IC50 [3]: 7.96 µM

GI50 (PANC-1): 0.064 µM
Compound: COc1ccc(-c2nnc(SCC(=O)Nc3ccc(/C=C/c4cc(OC)cc(OC)c4)cc3)o2)cc1

IC50 (HepG2 [8]): 67.2 µM
Compound: CCOc1cc(/C=C/c2ccc(O)c(O)c2)cc(OCC)c1

Compound: Oc1cc(O)cc(/C=C\c2ccc(O)c(O)c2)c1
IC50 [9]: 7.8 µM

GI50 (PANC-1): 0.064 µM
Compound: COc1cc(/C=C/c2ccc(NC(=O)CSc3nnc(-c4c(F)cccc4F)o3)cc2)cc(OC)c1

Compound: COc1cc(/C=C\c2ccc(OC)c(OC)c2)cc(OC)c1 [(Z)-3,4,3',5'-TETRAMETHOXYSTILBENE]
IC50 (B16-F10 [10]): 1 µM
inhibition (INH) (B16-F10 [11]): 80%

Compound: CCCC(=O)Oc1ccc(/C=C/c2cc(O)cc(O)c2)cc1
Activity (MDA-MB-231): 14.14%

IC50 (MCF7 [4]): 43 µM
Compound: COc1cc(/C=N/NC(=O)/C=C/c2ccc(O)c(OC)c2)cc(OC)c1
IC50 at 48 h [5]: 130 µM
selectivity ratio (in vitro): 6.81

Compound: COc1ccc(/C=C\c2cc(OC)c(OC)c(OC)c2)cc1
IC50 (B16-F10 [10]): 1 µM
inhibition (INH) (B16-F10 [11]): 80%

IC50 (HCT-116): 25.1 µM
Compound: Oc1ccc(/C=C\c2cc(O)cc(O)c2)cc1 [CIS-RESVERATROL]
IC50 [9]: 25.1 µM

IC50 (B16-F10 [10]): 1 µM
Compound: COc1ccc(/C=C\c2ccc(OC)c(OC)c2)cc1 [7Z-3,4,4'-TRIMETHOXYSTILBENE]

IC50 (HT-29 [6]): 18 µM
IC50 (MCF7 [7]): 38 µM
Compound: OC[C@H]1O[C@@H](Oc2cc(O)cc(/C=C/c3ccc(O)cc3)c2)[C@H](O)[C@@H](O)[C@@H]1O [PICEID]
IC50 (HEK293): > 100 µM
